# Laboratory results published in publication PMC10222378 (Pharmaceuticals, 2023).
# Where “and” joins values, the source holds several entries; their conditions need not be identical. Equal values may be shown once. Entries after “also recorded” stand apart in the source; their conditions may differ. Read-outs that look alike come from different tables or passages of the source.
# Key:
# human lymphocytes = experiment: CFSE lymphocyte proliferation assay after PHA activation; assay type: cell-based; conditions: 200 μM ClGBI
# Protocol: In this method, following the loading of cells with CFSE dye, each round of cell division is apparent by the reduced dye content and consequent lower fluorescence intensity of the daughter cells. […] Peripheral blood mononuclear cells (PBMCs) were isolated from the heparinized blood of healthy donors (n = 3) using the Ficoll–Hypaque separation method. […] The cells were grown in a humidified chamber at 37 °C and 5% CO2 for 6 days. As a negative control, unstimulated CFSE-labeled PBMCs were cultured in the same condition. […] After 6 days of proliferation, the CFSE-labeled cells were collected and analyzed by flow cytometry in an ACEA NovoCyte 2000R cytometer (Agilent, Santa Clara, CA, USA).
# hKV1.4-IR = hKV1.4-IR (Homo sapiens, UniProt P22459); experiment: Whole-cell patch clamp on hKV1.4-IR in CHO cells; assay type: cell-based; conditions: estimated from single concentration (200 μM), bimolecular interaction assumed, n = 6, read-out: estimated Kd
# Description: (§1) Pulses were delivered every 30 s. […] […]. Red dashed line indicates no effect.
# (§2) In general, the holding potential was −120 mV.
# (§3) […]. […] […].
# (§4) […]. All data are presented as means ± SEM.
# hKV1.5 = target: T1, hKV1.5 (Homo sapiens, UniProt P22460); experiment: Whole-cell patch clamp on hKV1.5 in CHO cells; assay type: cell-based; conditions: estimated from single concentration (200 μM), bimolecular interaction assumed, n = 4, read-out: estimated Kd
# T1 construct: EYFP (pEYFP vector); expressed in transfected cells; host or cells: CHO cells, transient
# Description: as §1, §2, §3, §4
# hKV10.1 = target: T2, hKV10.1 (Homo sapiens, UniProt O95259); experiment: Whole-cell patch clamp on hKV10.1 in CHO cells; assay type: cell-based; conditions: estimated from single concentration (200 μM), bimolecular interaction assumed, n = 5, read-out: estimated Kd
# T2 construct: host or cells: CHO cells, transient, co-transfected with a separate GFP plasmid
# T2 sequence (O95259 1-989): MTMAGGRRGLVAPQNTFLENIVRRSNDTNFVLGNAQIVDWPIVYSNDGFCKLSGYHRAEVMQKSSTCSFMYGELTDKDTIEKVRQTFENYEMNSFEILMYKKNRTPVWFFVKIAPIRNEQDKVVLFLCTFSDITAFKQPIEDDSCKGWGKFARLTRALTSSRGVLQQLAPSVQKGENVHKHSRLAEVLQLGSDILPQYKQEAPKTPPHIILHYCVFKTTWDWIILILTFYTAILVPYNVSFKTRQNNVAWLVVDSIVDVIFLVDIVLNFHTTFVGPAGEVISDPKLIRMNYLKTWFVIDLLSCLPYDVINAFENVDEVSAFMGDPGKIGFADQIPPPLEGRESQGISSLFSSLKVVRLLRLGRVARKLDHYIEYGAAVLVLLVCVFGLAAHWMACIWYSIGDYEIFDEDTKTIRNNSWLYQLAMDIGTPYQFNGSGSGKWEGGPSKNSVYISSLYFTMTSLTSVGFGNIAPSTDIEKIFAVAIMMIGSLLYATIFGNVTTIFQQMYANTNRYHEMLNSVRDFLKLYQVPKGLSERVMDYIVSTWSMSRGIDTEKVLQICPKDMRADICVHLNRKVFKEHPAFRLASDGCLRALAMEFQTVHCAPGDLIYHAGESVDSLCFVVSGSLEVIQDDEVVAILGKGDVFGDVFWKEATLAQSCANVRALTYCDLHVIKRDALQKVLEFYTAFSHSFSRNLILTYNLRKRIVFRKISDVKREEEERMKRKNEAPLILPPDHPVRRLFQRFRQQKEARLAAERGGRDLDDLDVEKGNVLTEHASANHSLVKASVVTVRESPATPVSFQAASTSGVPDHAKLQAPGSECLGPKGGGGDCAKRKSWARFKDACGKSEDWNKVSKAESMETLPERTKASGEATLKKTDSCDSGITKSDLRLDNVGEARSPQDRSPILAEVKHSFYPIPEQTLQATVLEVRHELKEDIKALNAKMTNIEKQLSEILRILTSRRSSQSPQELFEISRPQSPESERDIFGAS
# Description: as §1, §2, §3, §4
# hKCa3.1 = target: T3, hKCa3.1 (Homo sapiens, UniProt O15554); experiment: Whole-cell patch clamp on hKCa3.1 in CHO cells; assay type: cell-based
# T3 construct: expressed in transfected cells; host or cells: CHO cells, transient
# Description: as §1, §2, §3, §4
# hNaV1.4 = target: T4, hNaV1.4 (Homo sapiens, UniProt P35499); experiment: Whole-cell patch clamp on hNaV1.4 stably expressed in HEK293 cells; assay type: cell-based; conditions: estimated from single concentration (200 μM), bimolecular interaction assumed, n = 4, read-out: estimated Kd
# T4 construct: expressed in transfected cells
# Description: as §1, §2, §3, §4
# hNaV1.5 = target: T5, hNaV1.5 (Homo sapiens, UniProt Q14524); experiment: Whole-cell patch clamp on hNaV1.5 in CHO cells; assay type: cell-based; conditions: estimated from single concentration (200 μM), bimolecular interaction assumed, n = 6, read-out: estimated Kd
# T5 construct: expressed in transfected cells; host or cells: CHO cells, transient
# Description: as §1, §2, §3, §4
# [1] = target: voltage-gated proton (H+) channel (HV1); parameters: method as in PMID 24912149; conditions: known HV1 inhibitor, value quoted in abstract; amphibian expression system; cited from earlier work
# hKV11.1 (hERG) = hKV11.1 (hERG) (Homo sapiens, UniProt Q12809); experiment: in vitro; conditions: HEK293 cells stably expressing hKV11.1 (hERG), pH 7.35
# [2] = system: hKV1.1, hKV1.4-IR, hKV1.5, hKV10.1, hKV11.1, hKCa3.1, hNaV1.4, hNaV1.5; experiment: in vitro; conditions: human
# Protocol: (A–D) Currents were evoked from holding potentials of –100 mV by depolarizations to +50 mV for the time interval indicated on the panels. […] (E) hKV11.1 currents were measured with a voltage step from a holding potential of –80 mV to +20 mV, followed by a step to –40 mV, during which the peak current was measured. Pulses were delivered every 30 s. […] Red dashed line indicates no effect. Bars represent the mean of 3–8 independent measurements; error bars indicate the SEM.
# hKV1.3 [3] = target: T6, hKV1.3 (Homo sapiens, UniProt P22001); experiment: Whole-cell patch clamp on hKV1.3 in activated human lymphocytes; assay type: cell-based; parameters: endogenous in cells
# Description: The essential role of voltage-gated KV1.3 channels in T cell activation and proliferation is well-documented, so we tested whether the proliferation was suppressed in part via a KV1.3 blockade. […]. The open probability of the channel at +50 mV is maximal, and the relatively short duration of the depolarizing periods prevented inactivation. The time between voltage pulses was set to 15 s to avoid the cumulative inactivation of hKV1.3 channels. Under the given experimental conditions (i.e., the voltage protocol used and the lack of Ca^2+ in the pipette solution), the whole-cell currents were conducted exclusively by hKV1.3 channels. […]. Human peripheral blood […] (PBMCs) were isolated from venous blood obtained from anonymized healthy donors. The peripheral blood mononuclear cells were isolated by Histopaque1077 (Sigma-Aldrich Hungary, Budapest, Hungary) density gradient centrifugation. The cells obtained were resuspended in Roswell Park Memorial Institute (RPMI) 1640 medium (Gibco, Cat# 11875085) containing 10% fetal calf serum (FCS, Sigma-Aldrich, St. Louis, MO, USA), 100 μg/mL penicillin, 100 μg/mL streptomycin, and 2 mM L-glutamine, seeded in a 24-well culture plate at a density of 5–6 × 10^5 cells/mL, and grown in a 5% CO2 incubator at 37 °C for 3–5 days. Phytohemagglutinin A (PHA, Sigma-Aldrich, St. Louis, MO, USA) was also added at a concentration of 8–12 μg/mL to the medium to amplify the expression level of KV1.3. CHO cells and PBMCs were gently washed twice with 2 mL of ECS (see below) for the patch clamp experiments. hKV1.3 currents were recorded on activated lymphocytes 3 to 4 days after activation.
# as §2, §3, §4
# To examine the binding kinetics, RCF was plotted as a function of time. The association time constant (τon) was determined by fitting the data points with a single exponential function, RCF=RCF0×e^−t/τon+C where RCF0 is the RCF value before the addition of the drug, and C is a constant term.
# hKV1.1 [4] = target: T7, hKV1.1 (Homo sapiens, UniProt Q09470); experiment: Whole-cell patch clamp on hKV1.1 in CHO cells; assay type: cell-based; parameters: host or cells: CHO cells, transient; conditions: estimated from single concentration (200 μM), bimolecular interaction assumed, n = 5, read-out: estimated Kd
# Description: as §1, §2, §3, §4
# hKV1.3 [5] = target: T6, hKV1.3; conditions: read-out: Kd (concentration of positive control equivalent to its Kd), no reference given; cited from earlier work
# hKV1.1 [6] = target: T7, hKV1.1; conditions: read-out: Kd (concentration of positive control equivalent to its Kd), no reference given; cited from earlier work
# T6 sequence (P22001 whole entry): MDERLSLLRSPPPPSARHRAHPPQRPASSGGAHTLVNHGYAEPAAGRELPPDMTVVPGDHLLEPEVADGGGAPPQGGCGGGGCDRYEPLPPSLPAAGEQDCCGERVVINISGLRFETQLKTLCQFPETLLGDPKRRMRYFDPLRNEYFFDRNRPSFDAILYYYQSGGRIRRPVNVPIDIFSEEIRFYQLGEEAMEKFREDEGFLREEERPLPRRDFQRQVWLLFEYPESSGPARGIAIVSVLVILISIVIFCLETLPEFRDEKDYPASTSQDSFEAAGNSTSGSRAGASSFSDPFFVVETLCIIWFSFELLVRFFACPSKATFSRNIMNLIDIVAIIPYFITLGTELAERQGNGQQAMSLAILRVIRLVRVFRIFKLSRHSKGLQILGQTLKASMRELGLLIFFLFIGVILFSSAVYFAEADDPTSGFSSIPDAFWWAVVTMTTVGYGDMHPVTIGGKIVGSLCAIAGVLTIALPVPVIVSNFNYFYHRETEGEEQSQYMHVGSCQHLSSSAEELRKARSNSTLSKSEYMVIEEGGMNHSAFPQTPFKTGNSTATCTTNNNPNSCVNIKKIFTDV
# T7 sequence (Q09470 whole entry): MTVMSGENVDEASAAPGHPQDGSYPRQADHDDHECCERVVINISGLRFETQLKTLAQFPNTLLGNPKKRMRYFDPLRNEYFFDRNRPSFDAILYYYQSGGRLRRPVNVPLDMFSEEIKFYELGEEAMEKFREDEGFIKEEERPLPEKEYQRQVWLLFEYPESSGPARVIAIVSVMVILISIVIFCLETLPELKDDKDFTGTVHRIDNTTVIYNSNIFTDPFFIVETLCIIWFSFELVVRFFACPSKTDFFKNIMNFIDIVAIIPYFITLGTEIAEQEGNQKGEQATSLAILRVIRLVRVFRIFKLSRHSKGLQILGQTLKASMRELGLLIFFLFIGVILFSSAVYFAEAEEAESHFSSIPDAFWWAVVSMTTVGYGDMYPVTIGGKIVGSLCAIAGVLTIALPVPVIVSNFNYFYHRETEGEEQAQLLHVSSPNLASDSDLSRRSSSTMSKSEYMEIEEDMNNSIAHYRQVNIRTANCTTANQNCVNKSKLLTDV
# T1 sequence (P22460 whole entry): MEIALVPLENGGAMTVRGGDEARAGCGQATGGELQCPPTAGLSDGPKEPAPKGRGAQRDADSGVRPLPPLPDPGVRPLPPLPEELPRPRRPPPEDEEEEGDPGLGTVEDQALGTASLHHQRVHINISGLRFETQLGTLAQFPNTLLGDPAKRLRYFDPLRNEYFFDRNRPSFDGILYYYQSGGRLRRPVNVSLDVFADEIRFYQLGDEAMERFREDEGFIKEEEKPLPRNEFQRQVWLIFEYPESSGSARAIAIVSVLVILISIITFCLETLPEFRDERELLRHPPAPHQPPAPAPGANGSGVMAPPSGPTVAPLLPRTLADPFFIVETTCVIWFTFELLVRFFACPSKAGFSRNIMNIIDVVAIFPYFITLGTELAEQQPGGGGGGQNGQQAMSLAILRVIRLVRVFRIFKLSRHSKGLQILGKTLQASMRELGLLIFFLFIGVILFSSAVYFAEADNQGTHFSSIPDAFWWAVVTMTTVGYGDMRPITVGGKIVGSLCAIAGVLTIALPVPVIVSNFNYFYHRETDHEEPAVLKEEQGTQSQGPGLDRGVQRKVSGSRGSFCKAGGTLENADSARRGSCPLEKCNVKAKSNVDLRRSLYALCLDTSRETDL
# Chain of hKV1.4-IR (P22459 149-653 limits assumed): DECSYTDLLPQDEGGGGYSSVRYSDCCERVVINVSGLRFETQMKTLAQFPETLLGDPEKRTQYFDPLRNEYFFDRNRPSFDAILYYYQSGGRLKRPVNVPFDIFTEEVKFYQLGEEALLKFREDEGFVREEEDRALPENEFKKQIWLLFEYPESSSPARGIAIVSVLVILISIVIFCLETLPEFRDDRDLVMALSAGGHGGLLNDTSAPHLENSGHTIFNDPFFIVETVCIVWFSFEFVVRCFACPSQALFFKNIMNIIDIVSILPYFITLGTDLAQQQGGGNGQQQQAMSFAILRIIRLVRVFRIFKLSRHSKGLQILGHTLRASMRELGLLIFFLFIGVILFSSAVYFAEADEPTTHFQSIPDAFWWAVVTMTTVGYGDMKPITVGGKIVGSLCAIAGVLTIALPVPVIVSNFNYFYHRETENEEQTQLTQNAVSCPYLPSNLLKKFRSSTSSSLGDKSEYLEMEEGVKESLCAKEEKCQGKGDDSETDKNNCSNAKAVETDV
# T5 sequence (Q14524 whole entry): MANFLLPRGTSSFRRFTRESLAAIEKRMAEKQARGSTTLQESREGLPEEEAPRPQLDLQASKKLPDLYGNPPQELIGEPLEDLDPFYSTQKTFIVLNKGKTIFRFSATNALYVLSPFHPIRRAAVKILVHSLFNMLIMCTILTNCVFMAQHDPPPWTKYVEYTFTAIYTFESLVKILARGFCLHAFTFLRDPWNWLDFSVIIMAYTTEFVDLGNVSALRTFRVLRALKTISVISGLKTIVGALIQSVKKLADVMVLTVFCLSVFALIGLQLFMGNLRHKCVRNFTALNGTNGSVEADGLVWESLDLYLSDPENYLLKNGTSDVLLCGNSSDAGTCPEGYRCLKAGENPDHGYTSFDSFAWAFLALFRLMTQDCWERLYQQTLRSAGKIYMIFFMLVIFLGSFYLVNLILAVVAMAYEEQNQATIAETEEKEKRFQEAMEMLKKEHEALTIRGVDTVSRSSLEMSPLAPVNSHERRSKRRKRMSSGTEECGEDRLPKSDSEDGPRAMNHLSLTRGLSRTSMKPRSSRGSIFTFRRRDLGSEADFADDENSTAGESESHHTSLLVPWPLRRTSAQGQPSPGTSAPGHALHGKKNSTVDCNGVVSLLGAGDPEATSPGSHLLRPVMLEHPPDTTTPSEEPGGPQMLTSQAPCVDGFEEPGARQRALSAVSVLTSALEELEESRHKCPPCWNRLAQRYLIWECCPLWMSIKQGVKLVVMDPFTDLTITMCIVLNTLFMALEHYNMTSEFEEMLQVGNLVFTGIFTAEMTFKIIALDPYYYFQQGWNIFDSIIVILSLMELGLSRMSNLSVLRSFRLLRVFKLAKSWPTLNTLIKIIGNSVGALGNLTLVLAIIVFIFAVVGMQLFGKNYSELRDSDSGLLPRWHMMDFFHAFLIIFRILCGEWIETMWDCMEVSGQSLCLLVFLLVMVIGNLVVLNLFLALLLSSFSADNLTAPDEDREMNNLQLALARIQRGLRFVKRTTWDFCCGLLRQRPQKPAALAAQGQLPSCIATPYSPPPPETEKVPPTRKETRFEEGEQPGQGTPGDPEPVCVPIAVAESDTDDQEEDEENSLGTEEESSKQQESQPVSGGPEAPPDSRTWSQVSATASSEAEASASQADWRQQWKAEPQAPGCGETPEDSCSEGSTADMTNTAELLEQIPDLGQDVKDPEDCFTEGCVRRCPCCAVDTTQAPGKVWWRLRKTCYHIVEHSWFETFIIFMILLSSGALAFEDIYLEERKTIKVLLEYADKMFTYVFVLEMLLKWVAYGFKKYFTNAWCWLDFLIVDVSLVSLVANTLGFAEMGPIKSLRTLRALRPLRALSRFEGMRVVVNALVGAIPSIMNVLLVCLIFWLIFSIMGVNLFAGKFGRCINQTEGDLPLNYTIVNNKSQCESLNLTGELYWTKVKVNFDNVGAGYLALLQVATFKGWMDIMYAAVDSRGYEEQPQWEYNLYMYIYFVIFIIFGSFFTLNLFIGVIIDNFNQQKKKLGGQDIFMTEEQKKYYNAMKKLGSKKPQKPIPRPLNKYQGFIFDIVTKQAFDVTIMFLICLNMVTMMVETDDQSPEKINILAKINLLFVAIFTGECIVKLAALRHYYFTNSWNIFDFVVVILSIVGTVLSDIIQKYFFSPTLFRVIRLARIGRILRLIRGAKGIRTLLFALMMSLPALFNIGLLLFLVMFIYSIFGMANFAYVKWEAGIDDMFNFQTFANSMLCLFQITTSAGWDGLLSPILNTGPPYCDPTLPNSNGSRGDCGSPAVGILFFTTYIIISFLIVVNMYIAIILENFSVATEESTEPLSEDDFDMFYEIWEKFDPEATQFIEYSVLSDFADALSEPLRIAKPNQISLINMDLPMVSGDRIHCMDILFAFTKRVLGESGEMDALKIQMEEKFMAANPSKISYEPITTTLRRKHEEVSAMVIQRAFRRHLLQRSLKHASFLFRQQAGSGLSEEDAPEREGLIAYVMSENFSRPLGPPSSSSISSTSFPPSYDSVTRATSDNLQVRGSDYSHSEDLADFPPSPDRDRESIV
compound,measurement,setting,value
"N=C(N)Nc1nc2ccc(Cl)cc2[nH]1 [ClGBI, 5-chloro-2-guanidinobenzimidazole]",effect on lymphocyte proliferation,human lymphocytes,completely blocked; also recorded: significant suppression
same,potency estimated from few doses,hKV1.4-IR,188 ± 38 µM
same,potency estimated from few doses,hKV1.5,310 ± 43.6 µM
same,potency estimated from few doses,hKV10.1,77.5 ± 14.2 µM
same,inhibition of KCa3.1,hKCa3.1; 200 μM ClGBI,inhibited KCa3.1 to a small extent
same,potency estimated from few doses,"hKCa3.1; CHO, estimated from single concentration (200 μM), bimolecular interaction assumed, n = 5, read-out: estimated Kd",894 ± 134 µM
same,potency estimated from few doses,hNaV1.4,591 ± 123 µM
same,potency estimated from few doses,hNaV1.5,187 ± 35.7 µM
same,Kd,[1],~26 µM
same,potency estimated from few doses,hKV11.1 (hERG),12 ± 2.1 µM
same,Kd,[2],12 to 894 µM
same,time to reach block saturation,hKV1.3 [3]; 200 μM ClGBI,50 to 100 s
same,reduction in current amplitude,"hKV1.3 [3]; 200 μM ClGBI, equilibrium block",~ 75%
same,remaining current fraction (RCF),"hKV1.3 [3]; 200 μM ClGBI, equilibrium block, n = 9",0.25 ± 0.01
same,association time constant τon,"hKV1.3 [3]; 200 μM ClGBI, single exponential fit, n = 3",22.1 ± 2.7 s
same,reversibility of block on washout,"hKV1.3 [3]; after 200 μM ClGBI, perfusion with ClGBI-free ECS",complete recovery from block; also recorded: complete recovery from current inhibition
same,Hill coefficient nH,hKV1.3 [3]; two-parameter Hill fit of RCF dose-response,1.1 ± 0.07
same,Kd,"hKV1.3 [3]; two-parameter Hill fit of RCF dose-response, human lymphocytes",72.4 µM and ~72 µM
same,potency estimated from few doses,hKV1.1 [4],324 ± 13.1 µM
"CC[N+](CC)(CC)CC [TEA^+, tetraethylammonium]",Kd,hKV1.3 [5],10000 µM
same,Kd,hKV1.1 [6],300 µM
